Measurements published in patent publication US20150094294A1, “COMPOUNDS AND METHODS FOR TREATING MALARIA” (Cellceutix Corporation, priority 2012, published 2015).
≈ marks a conversion by molar mass, not a printed value.

How the values were obtained:
Format in all cases: cell-based
[1] = test system: P. falciparum 3D7 (chloroquine-sensitive); assay: Anti-malarial activity, P. falciparum 3D7 culture, 72 hour, DNA content by flow cytometry; settings: Plasmodium falciparum, 3D7, 72 h, synchronized ring-stage parasites
Description: Numerous compounds were screened in cultures of the malaria parasite P. falciparum 3D7 (chloroquine-sensitive) and DD2 (chloroquine-resistant). The compounds were also screened for toxixcity against 3T3 cells, HepG2 cells, and in a hemolysis assay. In brief, P. falciparum parasites were cultured in RPMI 1640 (Invitrogen) supplemented with Albumax II (Invitrogen). For synchronization, schizont stage parasites were magnet purified using a SuperMACS™ II Cell Separation Unit (Miltenyi Biotech). For IC50 determinations, synchronized ring-stage parasites were plated at 0.5% parasitemia and 8% hematocrit in 96-well plates at a total volume of 50 μL. Serial dilutions of 2× concentration of the respective compound, ranging from 2.5 μM to 20 nM, were added to the wells to bring the total volume up to 100 μL and 4% hematocrit. Compounds were assayed for a 72 hour period, after which the cultures were fixed with a solution of 4% paraformaldehyde and 0.08% glutaraldhyde in PBS. The cells were then permeabilized with 0.25% Triton X-100, and SYTOX Green Nucleic Acid Stain (Invitrogen) in PBS was added to a final concentration of 5 μM. DNA content, as an indicator of parasitemia, was analyzed on an Accuri C6 Flow Cytometer with C-Sampler. IC50 curves were generated using GraphPad Prism (GraphPad Software).

[2] = Cytotoxicity against 3T3 cells; settings: mouse
[3] = Cytotoxicity against HepG2 cells; settings: human
in vitro = assay: in vitro
[4] = 3T3 cells, read-out: Cytotoxicity 3T3 EC50
[5] = HepG2 cells, read-out: Cytotoxicity HepG2 EC50

Row | SMILES | IC50 [1] [µM] | EC50 [2, 4] [µM] | EC50 [3, 5] [µM] | EC50 (in vitro) [µg/mL] | EC50 [2] [µM] | EC50 [3] [µM] | EC50 (in vitro; hemolysis assay, read-out: Cytotoxicity Hemolysis EC50) [µg/mL]
1 | N=C(N)NCCCc1cccc(-c2cncc(-c3cccc(CCCNC(=N)N)c3)c2)c1 [Compound 132] | 0.112 | 323 | 456 | > 1000 |  |  | 
2 | N=C(N)NCCc1cccc(-c2cncc(-c3cccc(CCNC(=N)N)c3)c2)c1 [Compound 134] | 0.126 | 654 | 905 | > 1000 |  |  | 
3 | N=C(N)NCCC#Cc1cncc(-c2cccc(-c3cncc(C#CCCNC(=N)N)c3)c2)c1 [Compound 137] | 0.187 | 272 | 422 | > 1000 |  |  | 
4 | N=C(N)NCCCCCC(=O)Nc1cccc(-c2cc(-c3ccc(NC(=O)CCCCNC(=N)N)cc3)nc(-c3ccccc3)n2)c1 [Compound 139] | 0.43 | 36 | 23 |  |  |  | 
5 | N=C(N)NCCCOc1cc(OCCCNC(=N)N)c(-c2ccncc2)cc1-c1ccncc1 [Compound 140] | 0.602 | > 1450 | > 1450 | > 1000 |  |  | 
6 | NCCC#Cc1cncc(-c2cccc(-c3cncc(C#CCCN)c3)c2)c1 [Compound 142] | 0.795 | 229 | 594 | 538 (≈ 1470 µM) |  |  | 
7 | NCCCOc1cccc(-n2cc(-c3ccc4ccc(-c5cn(-c6cccc(OCCCN)c6)nn5)cc4c3)nn2)c1 [Compound 152] | 0.0883 | 406 | 502 | 0.8 (≈ 1.43 µM) |  |  | 
8 | N=C(N)N1CCN(c2ccc(-c3cc(-c4ccc(N5CCN(C(=N)N)CC5)cc4)ncn3)cc2)CC1 [Compound 153] | 0.0771 | 311 | 453 | 116 (≈ 239 µM) |  |  | 
9 | c1nc(-c2ccc(N3CCNCC3)cc2)cc(-c2ccc(N3CCNCC3)cc2)n1 [Compound 154] | 0.473 | 210 | 471 | 352 (≈ 879 µM) |  |  | 
10 | NCc1ccc(C(F)(F)F)c(Oc2ccc(S(=O)(=O)c3ccc(Oc4cc(CN)ccc4C(F)(F)F)cc3)cc2)c1 [Compound 156] | 0.258 | 25 | 50 | 9 (≈ 15.1 µM) |  |  | 
11 | N=C(N)NCCCCC(=O)Nc1cc(C(F)(F)F)cc(NC(=O)c2cc(C(=O)Nc3cc(C(F)(F)F)cc(NC(=O)CCCCNC(=N)N)c3SCCNC(=O)CN)ncn2)c1SCCNC(=O)CN [Compound 160] | 0.925 | 66 | 224 | 250 (≈ 242 µM) |  |  | 
12 | N=C(N)NCCCCC(=O)Nc1cccc(NC(=O)c2cc(C(=O)Nc3cccc(NC(=O)CCCCNC(=N)N)c3SCCN)ncn2)c1SCCN [Compound 161] | 0.939 | 697 | 676 |  |  |  | 
13 | O=S(=O)(c1ccc(Oc2cc(NC3CCNCC3)cc(C(F)(F)F)c2)cc1)c1ccc(Oc2cc(NC3CCNCC3)cc(C(F)(F)F)c2)cc1 [Compound 163] |  | 60 | 98 |  |  |  | 
14 | N=C(N)NCCc1ccc(C(F)(F)F)cc1NC(=O)c1cc(C(=O)Nc2cc(C(F)(F)F)ccc2CCNC(=N)N)ncn1 [Compound 176] | 0.629 | 523 | 608 | 314 (≈ 503 µM) |  |  | 
15 | NCCCOc1cccc(-n2cc(-c3cccc(-c4cn(-c5cccc(OCCCN)c5)nn4)c3)nn2)c1 [Compound 180] | 0.641 | 40 | 78 | 63 (≈ 123 µM) |  |  | 
16 | COc1cc(SCCN)c(C(F)(F)F)cc1NC(=O)c1cc(C(=O)Nc2cc(C(F)(F)F)c(SCCN)cc2OC)nc(SCCN)n1 [Compound 183] | 0.383 | 694 | 739 | 5 (≈ 6.76 µM) |  |  | 
17 | COc1cc(SCCNC(=N)N)c(C(F)(F)F)cc1NC(=O)c1cc(C(=O)Nc2cc(C(F)(F)F)c(SCCNC(=N)N)cc2OC)nc(SCCNC(=N)N)n1 [Compound 184] | 0.129 | 478 | > 1000 | 4 (≈ 4.62 µM) |  |  | 
18 | N#Cc1cccc(C(=O)Nc2cc(C(F)(F)F)cc(NC(=O)c3cc(C(=O)Nc4cc(C(F)(F)F)cc(NC(=O)c5cccc(C#N)c5)c4O[C@@H]4CCNC4)ncn3)c2O[C@@H]2CCNC2)c1 [Compound 186] | 0.177 | 63 | > 1000 | 107 (≈ 117 µM) |  |  | 
19 | NCCSc1ccc(NC(=O)c2cc(C(=O)Nc3ccc(SCCN)c(C(F)(F)F)c3)ncn2)cc1C(F)(F)F [Compound 188] | 0.137 | 1 | 9 | 4 (≈ 6.62 µM) |  |  | 
20 | NCCc1cccc(NC(=O)c2cccc(C(=O)Nc3cccc(CCN)c3)n2)c1 [Compound 191] | 0.458 | > 1000 | > 1000 | > 1000 |  |  | 
21 | NCCSc1ccc(NC(=O)c2cc(C(=O)Nc3ccc(SCCN)cc3)ncn2)cc1 [Compound 192] | 0.182 | 953 | > 1000 | 32 (≈ 68.3 µM) |  |  | 

Row | SMILES | IC50 [1] [µM] | EC50 [2, 4] [µM] | EC50 [3, 5] [µM] | EC50 (in vitro) [µg/mL] | EC50 [2] [µM] | EC50 [3] [µM] | EC50 (in vitro; hemolysis assay, read-out: Cytotoxicity Hemolysis EC50) [µg/mL]
22 | O=C(Nc1ccc(O[C@@H]2CCNC2)cc1)c1cccc(C(=O)Nc2ccc(O[C@@H]3CCNC3)cc2)n1 [Compound 193] | 0.045 | > 1000 | > 1000 | > 1000 |  |  | 
23 | O=C(Nc1ccc(O[C@@H]2CCNC2)cc1)c1cncc(C(=O)Nc2ccc(O[C@@H]3CCNC3)cc2)c1 [Compound 194] | 0.187 | > 1000 | > 1000 | > 1000 |  |  | 
24 | O=C(Nc1ccc(O[C@@H]2CCNC2)cc1)c1ccnc(C(=O)Nc2ccc(O[C@@H]3CCNC3)cc2)c1 [Compound 195] | 0.045 | > 1000 | > 1000 | > 1000 |  |  | 
25 | O=C(Nc1ccc(OC2CNC2)cc1)c1cc(C(=O)Nc2ccc(OC3CNC3)cc2)ncn1 [Compound 196] | 0.03 | > 1000 | 940 | 164 (≈ 356 µM) |  |  | 
26 | O=C(Nc1ccc(O[C@@H]2CCNC2)cc1)c1cc(C(=O)Nc2ccc(O[C@@H]3CCNC3)cc2)ncn1 [Compound 197] | 0.014 | 405 | 881 | 187 (≈ 383 µM) |  |  | 
27 | NC1CCC(Oc2ccc(NC(=O)c3cc(C(=O)Nc4ccc(OC5CCC(N)CC5)cc4)ncn3)cc2)CC1 (stereo not drawn) [Compound 200] | 0.004 | 27 | 37 | 24 (≈ 44.1 µM) |  |  | 
28 | O=C(Nc1ccc(N2CCNCC2)cc1)c1cc(C(=O)Nc2ccc(N3CCNCC3)cc2)ncn1 [Compound 201] | < 0.001 | 137 | 234 | 48 (≈ 98.6 µM) |  |  | 
29 | CN1CCN(c2ccc(NC(=O)c3cc(C(=O)Nc4ccc(N5CCN(C)CC5)cc4)ncn3)cc2)CC1 [Compound 212] | > 0.1 | > 1000 | > 1000 |  |  |  | 
30 | N=C(N)N1CC=C(c2ccc(NC(=O)c3cc(C(=O)Nc4ccc(C5=CCN(C(=N)N)CC5)cc4)ncn3)cc2)CC1 [Compound 219] |  | 919 | > 1000 |  |  |  | 
31 | CN1CCN(c2ccc(-c3cc(-c4ccc(N5CCN(C)CC5)cc4)ncn3)cc2)CC1 [Compound 278] | > 0.1 | > 1000 | > 1000 |  |  |  | 
32 | NCCCn1c2ccc(C3=CCNCC3)cc2c2cc(C3=CCNCC3)ccc21 [Compound 288] |  |  |  |  | > 1000 | > 1000 | > 1000
33 | N=C(N)NCCCn1c2ccc(C3=CCNCC3)cc2c2cc(C3=CCNCC3)ccc21 [Compound 290] | > 0.1 |  |  |  | > 1000 | > 1000 | 
34 | N=C(N)N1CCN(c2ccc3sc4ccc(N5CCN(C(=N)N)CC5)cc4c3c2)CC1 [Compound 292] | 0.088 | 710 | > 1000 |  |  |  | 
35 | CCn1c2ccc(N3CCN(C(=N)N)CC3)cc2c2cc(N3CCN(C(=N)N)CC3)ccc21 [Compound 294] | > 0.1 | > 1000 | > 1000 |  |  |  | 
36 | COc1cc(OC)c(C(=O)Nc2cc(C(F)(F)F)cc(NC(=O)c3cccc(C#N)c3)c2SCCN)cc1C(=O)Nc1cc(C(F)(F)F)cc(NC(=O)c2cccc(C#N)c2)c1SCCN [Compound 300] |  | 848 | 848 |  |  |  | 
37 | COc1cccc(C(=O)Nc2cc(C(F)(F)F)cc(NC(=O)c3cc(C(=O)Nc4cc(C(F)(F)F)cc(NC(=O)c5cccc(OC)c5)c4SCCN)ncn3)c2SCCN)c1 [Compound 309] | 0.079 | > 1000 | > 1000 |  |  |  | 
38 | COc1ccc(C(=O)Nc2cc(C(F)(F)F)cc(NC(=O)c3cc(C(=O)Nc4cc(C(F)(F)F)cc(NC(=O)c5ccc(OC)c(OC)c5)c4SCCN)ncn3)c2SCCN)cc1OC [Compound 312] |  | > 10000 | > 1000 | 6 (≈ 6.23 µM) |  |  | 
39 | COc1ccc(C(=O)Nc2cc(C(F)(F)F)cc(NC(=O)c3cc(C(=O)Nc4cc(C(F)(F)F)cc(N)c4SCCN)ncn3)c2SCCN)cc1OC [Compound 313] |  | 92 | 545 | 14 (≈ 17.5 µM) |  |  | 
40 | NCCSc1c(NC(=O)c2cc(C(=O)Nc3cc(C(F)(F)F)cc(NC(=O)c4ccc(Cl)cc4Cl)c3SCCN)ncn2)cc(C(F)(F)F)cc1NC(=O)c1ccc(Cl)cc1Cl [Compound 314] |  | > 1000 | 827 |  |  |  | 
41 | NCCSc1c(N)cc(C(F)(F)F)cc1NC(=O)c1cc(C(=O)Nc2cc(C(F)(F)F)cc(NC(=O)c3cccnc3)c2SCCN)ncn1 [Compound 316] |  | 33 | 41 | 22 (≈ 29.7 µM) |  |  | 
